Assay: xn = mol fraction of the nth substance listed
Conditions: 101 kPa, Liquid; for mass density: Vibrating tube method

CCC(C)(C)O [2-methylbutan-2-ol] + CCO
Conditions | kinematic viscosity, 293.15 K [m2/s] | kinematic viscosity, 298.15 K [m2/s] | kinematic viscosity, 303.15 K [m2/s] | mass density, 293.15 K [kg/m3] | mass density, 298.15 K [kg/m3] | mass density, 303.15 K [kg/m3] | mass density, 308.15 K [kg/m3]
x1 = 0.0268 | – | – | – | 790.6 | 786.4 | 782.1 | 777.8
x1 = 0.0549 | – | – | – | 791.5 | 787.3 | 783.2 | 778.9
x1 = 0.0845 | – | – | – | 792.2 | 788.2 | 784.2 | 780
x1 = 0.0915 | 1.64e-06 | 1.5e-06 | 1.34e-06 | – | – | – | –
x1 = 0.1156 | – | – | – | 793 | 789.1 | 785.2 | 781.1
x1 = 0.1484 | – | – | – | 793.9 | 790 | 786.2 | 782.3
x1 = 0.1753 | 1.76e-06 | 1.62e-06 | 1.44e-06 | – | – | – | –
x1 = 0.183 | – | – | – | 794.8 | 791 | 787.3 | 783.4
x1 = 0.2524 | 1.89e-06 | 1.74e-06 | 1.55e-06 | – | – | – | –
x1 = 0.2584 | – | – | – | 797 | 793.3 | 789.7 | 785.9
x1 = 0.3235 | 2.04e-06 | 1.86e-06 | 1.66e-06 | – | – | – | –
x1 = 0.3433 | – | – | – | 799.5 | 795.9 | 792.3 | 788.6
x1 = 0.3894 | 2.19e-06 | 1.99e-06 | 1.78e-06 | – | – | – | –
x1 = 0.4395 | – | – | – | 802.4 | 798.8 | 795.2 | 791.5
x1 = 0.4505 | 2.35e-06 | 2.13e-06 | 1.91e-06 | – | – | – | –
x1 = 0.5495 | – | – | – | 805.3 | 801.8 | 798.2 | 794.6
x1 = 0.5605 | 2.69e-06 | 2.43e-06 | 2.17e-06 | – | – | – | –
x1 = 0.6567 | 3.07e-06 | 2.76e-06 | 2.45e-06 | – | – | – | –
x1 = 0.6765 | – | – | – | 808.3 | 804.8 | 801.3 | 797.6
x1 = 0.7416 | 3.46e-06 | 3.1e-06 | 2.74e-06 | – | – | – | –
x1 = 0.817 | 3.86e-06 | 3.44e-06 | 3.04e-06 | – | – | – | –
x1 = 0.8247 | – | – | – | 811.2 | 807.7 | 804.2 | 800.6
x1 = 0.8844 | 4.26e-06 | 3.78e-06 | 3.33e-06 | – | – | – | –
x1 = 0.9451 | 4.67e-06 | 4.12e-06 | 3.62e-06 | – | – | – | –
x1 = 1 | 5.11e-06 | 4.47e-06 | 3.91e-06 | 813.9 | 810.5 | 807 | 803.5

Source: the NIST ThermoML archive (doi:10.1021/je050416y)
